What was measured:
Assay type in all cases: in vivo
winter oilseed rape = assay: Field trial, visual crop injury ratings; conditions: varying rates, crop Growth Stage 39-50, 32, 49, and 74 days after treatment, in each case
Description: Multiple small plot research experiments were conducted to evaluate efficacy and tolerance of winter oilseed rape to compositions described herein. Typical small plots (2-4×4-10 meters (m)) were used in growers' fields under natural conditions with normal commercial cultural practices. Backpack sprayers were used to apply all treatments based on unit area. The methyl ester of formula (I) and propyzamide were tested alone and in combination at varying rates. Application water volume was 150 L/ha. Crop stage was at Growth Stage 39-50. Visual crop injury ratings were collected 32, 49, and 74 days after treatment. […] The reported values are means.

[1] = system: CIRAR Cirsium arvense (L.) Scop. (Canada thistle); assay: Postemergent herbicidal activity, greenhouse; conditions: foliar, 14 d
Description: (§1) Evaluation of Postemergent Herbicidal Activity. Seeds or nutlets of the desired test plant species were planted in Sun Gro Metro-Mix® 360 planting mixture, which typically has a pH of 6.0 to 6.8 and an organic matter content of about 30 percent, in plastic pots with a surface area of 64 square centimeters (cm^2). […] The plants were grown for 7-21 days (d) in a greenhouse with an approximate 15 hour (h) photoperiod which was maintained at about 23-29° C. during the day and 22-28° C. during the night. Nutrients and water were added on a regular basis and supplemental lighting was provided with overhead metal halide 1000-Watt lamps as necessary. The plants were employed for testing when they reached the first or second true leaf stage.
(§2) A weighed amount, determined by the highest rate to be tested, of each test compound was placed in a 25 milliliter (mL) glass vial and was dissolved in 4 mL of a 97:3 volume per volume (v/v) mixture of acetone and dimethyl sulfoxide (DMSO) to obtain concentrated stock solutions. […] The concentrated stock solutions obtained were diluted with 20 mL of an aqueous mixture containing acetone, water, isopropyl alcohol, DMSO, Atplus 411F crop oil concentrate, and Triton® X-155 surfactant in a 48.5:39:10:1.5:1.0:0.02 v/v ratio to obtain spray solutions containing the highest application rates. Additional application rates were obtained by serial dilution of 12 mL of the high rate solution into a solution containing 2 mL of a 97:3 v/v mixture of acetone and DMSO and 10 mL of an aqueous mixture containing acetone, water, isopropyl alcohol, DMSO, Atplus 411F crop oil concentrate, and Triton X-155 surfactant in a 48.5:39:10:1.5:1.0:0.02 v/v ratio to obtain 1/2×, 1/4×, 1/8× and 1/16× rates of the high rate. Compound requirements are based upon a 12 mL application volume at a rate of 187 liters per hectare (L/ha). Formulated compounds were applied to the plant material with an overhead Mandel track sprayer equipped with 8002E nozzles calibrated to deliver 187 L/ha over an application area of 0.503 square meters (m^2) at a spray height of 18 inches (43 cm) above the average plant canopy height. Control plants were sprayed in the same manner with the solvent blank.
(§3) Treatments consisted of the methyl ester of 4-amino-3-chloro-6-(4-chloro-2-fluoro-3-methoxyphenyl)pyridine-2-carboxylic acid (Cmpd 1) as technical grade material and propyzamide (Kerb 50 W) alone and in combination.
(§4) The treated plants and control plants were placed in a greenhouse as described above and watered by subirrigation to prevent wash-off of the test compounds. After 14 d, the condition of the test plants as compared with that of the untreated plants was determined visually and scored on a scale of 0 to 100 percent where 0 corresponds to no injury and 100 corresponds to complete kill.
(§5) Colby's equation was used to determine the herbicidal effects expected from the mixtures (Colby, S. R. Calculation of the synergistic and antagonistic response of herbicide combinations. Weeds 1967, 15, 20-22). More specifically, the following equation was used to calculate the expected activity of mixtures containing two active ingredients, A and B: Expected=A+B−(A×B/100) A=observed efficacy of active ingredient A at the same concentration as used in the mixture; B=observed efficacy of active ingredient B at the same concentration as used in the mixture.

[2] = system: STEME Stellaria media (L.) Vill. (common chickweed); assay: Postemergent herbicidal activity, greenhouse; conditions: foliar, 14 d
Description: as §1, §2, §3, §4, §5

[3] = system: EPHHL Euphorbia heterophylla L. (wild poinsettia); assay: Postemergent herbicidal activity, greenhouse; conditions: foliar, 14 d
Description: as §1, §2, §3, §4, §5

[4] = system: AMARE Amaranthus retroflexus L. (redroot pigweed); assay: Postemergent herbicidal activity, greenhouse; conditions: foliar, 14 d
Description: as §1, §2, §3, §4, §5

[5] = system: POLCO Polygonum convolvulus L. (wild buckwheat); assay: Postemergent herbicidal activity, greenhouse; conditions: foliar, 14 d
Description: as §1, §2, §3, §4, §5

[6] = system: BRSNW Brassica napus (winter oilseed rape); assay: Postemergent herbicidal activity, greenhouse; conditions: foliar, 14 d
Description: as §1, §2, §3, §4, §5

[7] = system: SETFA Setaria faberi Herrm. (giant foxtail); assay: Postemergent herbicidal activity, greenhouse; conditions: foliar, 14 d
Description: as §1, §2, §3, §4, §5

[8] = system: ABUTH Abutilon theophrasti Medik. (velvetleaf); assay: Postemergent herbicidal activity, greenhouse; conditions: foliar, 14 d
Description: as §1, §2, §3, §4, §5

[9] = system: IPOHE Ipomoea hederacea (L.) Jacq. (ivyleaf morningglory); assay: Postemergent herbicidal activity, greenhouse; conditions: foliar, 14 d
Description: as §1, §2, §3, §4, §5

[10] = system: CHEAL Chenopodium album L. (common lambsquarters); assay: Postemergent herbicidal activity, greenhouse; conditions: foliar, 14 d
Description: as §1, §2, §3, §4, §5

[11] = system: GLXMA Glycine max (volunteer soybean); assay: Postemergent herbicidal activity, greenhouse; conditions: foliar, 14 d
Description: as §1, §2, §3, §4, §5

[12] = system: VIOTR Viola tricolor L. (wild violet); assay: Postemergent herbicidal activity, greenhouse; conditions: foliar, 14 d
Description: as §1, §2, §3, §4, §5

COC(=O)c1nc(-c2ccc(Cl)c(OC)c2F)cc(N)c1Cl [Cmpd I, methyl ester of 4-amino-3-chloro-6-(4-chloro-2-fluoro-3-methoxyphenyl)pyridine-2-carboxylic acid]
Visual crop injury rating (winter oilseed rape): 0 % injury | % control rated visually, ob (observed) ([1]; Cmpd I 2.5 g ae/ha): 47% | % control rated visually, ob (observed) ([1]; Cmpd I 5 g ae/ha): 53% | % control rated visually, ob (observed) ([1]; Cmpd I 10 g ae/ha): 65% | % control rated visually, ob (observed) ([2]; Cmpd I 2.5 g ae/ha): 50% | % control rated visually, ob (observed) ([2]; Cmpd I 5 g ae/ha): 57% | % control rated visually, ob (observed) ([2]; Cmpd I 10 g ae/ha): 72% | % control rated visually, ob (observed) ([3]; Cmpd I 2.5 g ae/ha): 85% | % control rated visually, ob (observed) ([3]; Cmpd I 5 g ae/ha): 93% | % control rated visually, ob (observed) ([3]; Cmpd I 10 g ae/ha): 100% | % control rated visually, ob (observed) ([4]; Cmpd I 2.5 g ae/ha): 50% | % control rated visually, ob (observed) ([4]; Cmpd I 5 g ae/ha): 58% | % control rated visually, ob (observed) ([4]; Cmpd I 10 g ae/ha): 77% | % control rated visually, ob (observed) ([5]; Cmpd I 2.5 g ae/ha): 35% | % control rated visually, ob (observed) ([5]; Cmpd I 5 g ae/ha): 25% | % control rated visually, ob (observed) ([5]; Cmpd I 10 g ae/ha): 48% | % control rated visually, ob (observed) ([6]; Cmpd I 2.5 g ae/ha): 0% | % control rated visually, ob (observed) ([6]; Cmpd I 5 g ae/ha): 0% | % control rated visually, ob (observed) ([6]; Cmpd I 10 g ae/ha): 10% | % control rated visually, ob (observed) ([7]; Cmpd I 2.5 g ae/ha): 0% | % control rated visually, ob (observed) ([7]; Cmpd I 5 g ae/ha): 5% | % control rated visually, ob (observed) ([7]; Cmpd I 10 g ae/ha): 35% | % control rated visually, ob (observed) ([8]; Cmpd I 2.5 g ae/ha): 87% | % control rated visually, ob (observed) ([8]; Cmpd I 5 g ae/ha): 85% | % control rated visually, ob (observed) ([8]; Cmpd I 10 g ae/ha): 90% | % control rated visually, ob (observed) ([9]; Cmpd I 2.5 g ae/ha): 20% | % control rated visually, ob (observed) ([9]; Cmpd I 5 g ae/ha): 38% | % control rated visually, ob (observed) ([9]; Cmpd I 10 g ae/ha): 43% | % control rated visually, ob (observed) ([10]; Cmpd I 2.5 g ae/ha): 82% | % control rated visually, ob (observed) ([10]; Cmpd I 5 g ae/ha): 90% | % control rated visually, ob (observed) ([10]; Cmpd I 10 g ae/ha): 91% | % control rated visually, ob (observed) ([11]; Cmpd I 2.5 g ae/ha): 80% | % control rated visually, ob (observed) ([11]; Cmpd I 5 g ae/ha): 87% | % control rated visually, ob (observed) ([11]; Cmpd I 10 g ae/ha): 100% | % control rated visually, ob (observed) ([12]; Cmpd I 2.5 g ae/ha): 30% | % control rated visually, ob (observed) ([12]; Cmpd I 5 g ae/ha): 43% | % control rated visually, ob (observed) ([12]; Cmpd I 10 g ae/ha): 62%
